Assays:
[1] = target: h-GABA-A α2β2γ1 (Homo sapiens (Human), UniProt P47869+Q8N1C3); experiment: Two-electrode voltage clamp electrophysiology in Xenopus oocytes expressing GABAA receptors; type: cell-based; conditions: Table 2; for Efficacy (GABA) %: % modulation of GABA EC20 = 100*(Fold increase-1), compound at 30-fold Ki; for Fold increase h-GABA-A α2β2γ1 oocyte @ 30-fold Ki: GABA EC20, test compound at approx. 30-fold its Ki α2β2γ1, Xenopus oocytes, -80 mV
Description: Xenopus laevis oocytes at maturation stages V-VI were used for the expression of cloned mRNA encoding GABAA receptor subunits. Oocytes ready for RNA micro-injection were bought from Ecocyte, Castrop-Rauxel, Germany and stored in modified Barth's medium (composition in mM: NaCl 88, KCl 1, NaHCO3 2.4, HEPES 10, MgSO4 0.82, CaNO3 0.33, CaCl2 0.33, pH=7.5) at 20° C. until the experiment.
Oocytes were plated in 96-well plates for microinjection using the Roboinject automated instrument (MultiChannelSystems, Reutlingen, Germany). Approximately 50 nL of an aqueous solution containing the RNA transcripts for the subunits of the desired GABAA receptor subtype was injected into each oocyte. […] Oocytes were kept in modified Barth's medium (composition in mM: NaCl 88, KCl 1, NaHCO3 […], HEPES 10, MgSO4 0.82, CaNO3 0.33, CaCl2 0.33, pH=7.5) at 20° C. until the experiment.
Electrophysiological experiments were performed using the Roboocyte instrument (MultiChannelSystems, Reutlingen, Germany) on days 3 to 5 after the micro-injection of mRNA. During the experiment the oocytes were constantly superfused by a solution containing (in mM) NaCl 90, KCl 1, HEPES 5, MgCl2 1, CaCl2 1 (pH 7.4). Oocytes were impaled by two glass microelectrodes (resistance: […]) which were filled with a solution containing KCl 1M+K-acetate 1.5 M and voltage-clamped to −80 mV. The recordings were performed at room temperature using the Roboocyte two-electrode voltage clamp system (Multichannelsystem). After an initial equilibration period of 1.5 min GABA was added for 1.5 min at a concentration evoking approximately 20% of a maximal current response (EC20). After another rest interval of 2.5 min GABA was again added evoking a response of similar amplitude and shape. […] Current traces were recorded at a digitization rate of 10 Hz during and shortly before and after the GABA application.
Each compound and concentration was tested on at least 3 oocytes. Different oocytes were used for different compound concentrations.
For the analysis, the digitized current traces of the first and second GABA response were superimposed and, if necessary, rescaled to equal maximal amplitudes. The ratio between the two responses during the time interval of test compound application was calculated point by point. The extremum of the resulting “ratio trace” was taken as the efficacy (“Fold increase”) of the compound expressed as “% modulation of GABA EC20” (100*(Fold increase−1)).

[2] = target: human GABAA α1β2γ1 receptor (Homo sapiens (Human), UniProt P14867+Q8N1C3); experiment: Radioligand binding assay, competition for [3H]RO7239181, γ1-containing GABAA subtypes
[3] = Table 1, [3H]RO7239181 displacement, membranes from HEK293F cells, mean of two determinations
[4] = Table 3, reference compounds comparison

**Q.** What does the source list for `Cc1nnc2n1-c1cnc(Cl)c(Cl)c1C(c1c(F)cccc1F)=N[C@H]2C` [Example 1, (7S)-11,12-dichloro-9-(2,6-difluorophenyl)-3,7-dimethyl-2,4,5,8,13-pentazatricyclo[8.4.0.02,6]tetradeca-1(10),3,5,8,11,13-hexaene]?
**A.** Efficacy (GABA) % [1]: 55%; Fold increase h-GABA-A α2β2γ1 oocyte @ 30-fold Ki [1]: 1.55

**Q.** With `Cc1nnc2n1-c1cnc(C3CC3)c(Cl)c1C(c1c(F)cccc1F)=N[C@H]2C` [Example 2, (7S)-11-chloro-12-cyclopropyl-9-(2,6-difluorophenyl)-3,7-dimethyl-2,4,5,8,13-pentazatricyclo[8.4.0.02,6]tetradeca-1(10),3,5,8,11,13-hexaene] as the compound, how does the “Efficacy (GABA) %” value [1] read?
**A.** 162%

**Q.** And the “Fold increase h-GABA-A α2β2γ1 oocyte @ 30-fold Ki” value [1]?
**A.** 2.62

**Q.** Which “Efficacy (GABA) %” value [1] does the source give for `Cc1ncc2c(c1Cl)C(c1c(F)cccc1F)=N[C@@H](C)c1nnc(C)n1-2` [Example 3, (7S)-11-chloro-9-(2,6-difluorophenyl)-3,7,12-trimethyl-2,4,5,8,13-pentazatricyclo[8.4.0.02,6]tetradeca-1(10),3,5,8,11,13-hexaene] here?
**A.** 66%

**Q.** What about the “Fold increase h-GABA-A α2β2γ1 oocyte @ 30-fold Ki” value [1] of the same compound?
**A.** 1.66

**Q.** Which results are given for `Cc1nnc2n1-c1cnc(C(F)(F)F)c(Cl)c1C(c1c(F)cccc1F)=N[C@H]2C` [Example 4, (7S)-11-chloro-9-(2,6-difluorophenyl)-3,7-dimethyl-12-(trifluoromethyl)-2,4,5,8,13-pentazatricyclo[8.4.0.02,6]tetradeca-1(10),3,5,8,11,13-hexaene]?
**A.** Efficacy (GABA) % [1]: 116%; Fold increase h-GABA-A α2β2γ1 oocyte @ 30-fold Ki [1]: 2.16; Ki [2, 3]: 51.6 nM; Ki [2, 4]: 51.6 nM

**Q.** What does the source list for `Cc1nc2n(n1)-c1cnc(C(F)(F)F)c(Cl)c1C(c1c(F)cccc1F)=N[C@H]2C` [Example 5]?
**A.** Efficacy (GABA) % [1]: 84%; Fold increase h-GABA-A α2β2γ1 oocyte @ 30-fold Ki [1]: 1.84

**Q.** With `C[C@@H]1N=C(c2c(F)cccc2F)c2c(cnc(C(F)(F)F)c2Cl)-n2nc(C(=O)N3CCC3)nc21` [Example 6, azetidin-1-yl-[(7S)-11-chloro-9-(2,6-difluorophenyl)-7-methyl-12-(trifluoromethyl)-2,3,5,8,13-pentazatricyclo[8.4.0.02,6]tetradeca-1(10),3,5,8,11,13-hexaen-4-yl]methanone] as the compound, how does the “Efficacy (GABA) %” value [1] read?
**A.** 91%

**Q.** What about the “Fold increase h-GABA-A α2β2γ1 oocyte @ 30-fold Ki” value [1] of the same compound?
**A.** 1.91

**Q.** For `C[C@@H]1N=C(c2c(F)cccc2F)c2c(cnc(C(F)(F)F)c2Cl)-n2nc(C(=O)N3CC(F)C3)nc21` [Example 7, [(7S)-11-chloro-9-(2,6-difluorophenyl)-7-methyl-12-(trifluoromethyl)-2,3,5,8,13-pentazatricyclo[8.4.0.02,6]tetradeca-1(10),3,5,8,11,13-hexaen-4-yl]-(3-fluoroazetidin-1-yl)methanone], which “Efficacy (GABA) %” value [1] is on record?
**A.** 85%

**Q.** And the “Fold increase h-GABA-A α2β2γ1 oocyte @ 30-fold Ki” value [1]?
**A.** 1.85

**Q.** With `C[C@@H]1N=C(c2c(F)cccc2F)c2c(cnc(C(F)(F)F)c2Cl)-n2nc(C(=O)N3CC(O)C3)nc21` [Example 8, [(7S)-11-chloro-9-(2,6-difluorophenyl)-7-methyl-12-(trifluoromethyl)-2,3,5,8,13-pentazatricyclo[8.4.0.02,6]tetradeca-1(10),3,5,8,11,13-hexaen-4-yl]-(3-hydroxyazetidin-1-yl)methanone] as the compound, how does the “Efficacy (GABA) %” value [1] read?
**A.** 114%

**Q.** What about the “Fold increase h-GABA-A α2β2γ1 oocyte @ 30-fold Ki” value [1] of the same compound?
**A.** 2.14

**Q.** And the Ki [2, 3]?
**A.** 48.8 nM

**Q.** Which “Efficacy (GABA) %” value [1] does the source give for `COC1CN(C(=O)c2nc3n(n2)-c2cnc(C(F)(F)F)c(Cl)c2C(c2c(F)cccc2F)=N[C@H]3C)C1` [Example 9, [(7S)-11-chloro-9-(2,6-difluorophenyl)-7-methyl-12-(trifluoromethyl)-2,3,5,8,13-pentazatricyclo[8.4.0.02,6]tetradeca-1(10),3,5,8,11,13-hexaen-4-yl]-(3-methoxyazetidin-1-yl)methanone] here?
**A.** 87%

**Q.** What about the “Fold increase h-GABA-A α2β2γ1 oocyte @ 30-fold Ki” value [1] of the same compound?
**A.** 1.87

**Q.** And the Ki [2, 3]?
**A.** 45.8 nM

**Q.** `C[C@@H]1N=C(c2c(F)cccc2F)c2c(cnc(C(F)(F)F)c2Cl)-n2nc(C(=O)N3CC(C)(O)C3)nc21` [Example 10, [(7S)-11-chloro-9-(2,6-difluorophenyl)-7-methyl-12-(trifluoromethyl)-2,3,5,8,13-pentazatricyclo[8.4.0.02,6]tetradeca-1(10),3,5,8,11,13-hexaen-4-yl]-(3-hydroxy-3-methyl-azetidin-1-yl)methanone] was tested. Which “Efficacy (GABA) %” value [1] did it give?
**A.** 82%

**Q.** And the “Fold increase h-GABA-A α2β2γ1 oocyte @ 30-fold Ki” value [1]?
**A.** 1.82

**Q.** And the Ki [2, 3]?
**A.** 80.5 nM

**Q.** What about the Ki [2, 4] of the same compound?
**A.** 80.5 nM

**Q.** How did the “Efficacy (GABA) %” value [1] turn out when `C[C@@H]1N=C(c2c(F)cccc2F)c2c(cnc(C(F)(F)F)c2Cl)-n2nc(C(=O)N3CCS(=O)(=O)CC3)nc21` [Example 11, [(7S)-11-chloro-9-(2,6-difluorophenyl)-7-methyl-12-(trifluoromethyl)-2,3,5,8,13-pentazatricyclo[8.4.0.02,6]tetradeca-1(10),3,5,8,11,13-hexaen-4-yl]-(1,1-dioxo-1,4-thiazinan-4-yl)methanone] was run?
**A.** 114%

**Q.** And the “Fold increase h-GABA-A α2β2γ1 oocyte @ 30-fold Ki” value [1]?
**A.** 2.14

**Q.** And the Ki [2, 3]?
**A.** 45.8 nM

**Q.** What does the source list for `C[C@@H]1N=C(c2c(F)cccc2F)c2c(cnc(C(F)(F)F)c2Cl)-n2nc(NC(=O)C3COC3)nc21` [Example 12, N-[(7S)-11-chloro-9-(2,6-difluorophenyl)-7-methyl-12-(trifluoromethyl)-2,3,5,8,13-pentazatricyclo[8.4.0.02,6]tetradeca-1(10),3,5,8,11,13-hexaen-4-yl]oxetane-3-carboxamide]?
**A.** Efficacy (GABA) % [1]: 143%; Fold increase h-GABA-A α2β2γ1 oocyte @ 30-fold Ki [1]: 2.43

**Q.** Which “Efficacy (GABA) %” value [1] does the source give for `C[C@@H]1N=C(c2c(F)cccc2F)c2c(cnc(C(F)(F)F)c2Cl)-n2nc(N3CCCC3=O)nc21` [Example 13, 1-[(7S)-11-chloro-9-(2,6-difluorophenyl)-7-methyl-12-(trifluoromethyl)-2,3,5,8,13-pentazatricyclo[8.4.0.02,6]tetradeca-1(10),3,5,8,11,13-hexaen-4-yl]pyrrolidin-2-one] here?
**A.** 173%

**Q.** What about the “Fold increase h-GABA-A α2β2γ1 oocyte @ 30-fold Ki” value [1] of the same compound?
**A.** 2.73

**Q.** Which “Efficacy (GABA) %” value [1] does the source give for `C[C@@H]1N=C(c2c(F)cccc2F)c2c(cnc(C(F)(F)F)c2Cl)-n2c1nc1c2CCC1` [Example 20, (10S)-6-chloro-8-(2,6-difluorophenyl)-10-methyl-5-(trifluoromethyl)-1,4,9,12-tetrazatetracyclo[9.6.0.02,7.013,17]heptadeca-2(7),3,5,8,11,13(17)-hexaene] here?
**A.** 108%

**Q.** What about the “Fold increase h-GABA-A α2β2γ1 oocyte @ 30-fold Ki” value [1] of the same compound?
**A.** 2.08

**Q.** For `C[C@@H]1N=C(c2c(F)cccc2F)c2c(cnc(C(F)(F)F)c2Cl)-n2nc(C(=O)NCC(C)(C)O)nc21` [Example 21, (7S)-11-chloro-9-(2,6-difluorophenyl)-N-(2-hydroxy-2-methyl-propyl)-7-methyl-12-(trifluoromethyl)-2,3,5,8,13-pentazatricyclo[8.4.0.02,6]tetradeca-1(10),3,5,8,11,13-hexaene-4-carboxamide], which “Efficacy (GABA) %” value [1] is on record?
**A.** 175%

**Q.** What about the “Fold increase h-GABA-A α2β2γ1 oocyte @ 30-fold Ki” value [1] of the same compound?
**A.** 2.75

**Q.** Which results are given for `C[C@@H]1N=C(c2c(F)cccc2F)c2c(cnc(C(F)(F)F)c2Cl)-n2nc(C(=O)NCC3(O)CC3)nc21` [Example 22, (7S)-11-chloro-9-(2,6-difluorophenyl)-N-[(1-hydroxycyclopropyl)methyl]-7-methyl-12-(trifluoromethyl)-2,3,5,8,13-pentazatricyclo[8.4.0.02,6]tetradeca-1(10),3,5,8,11,13-hexaene-4-carboxamide]?
**A.** Efficacy (GABA) % [1]: 172%; Fold increase h-GABA-A α2β2γ1 oocyte @ 30-fold Ki [1]: 2.72

From patent publication US20240270744A1 (Hoffmann-La Roche Inc., priority 2021, published 2024)
